# In ChEMBL document CHEMBL1155993, “5-(2-Pyrimidinyl)-imidazo[1,2-a]pyridines are antibacterial agents targeting the ATPase domains of DNA gyrase and topoisomerase IV” (Bioorg Med Chem Lett, 2009):
# Legend:
# Staphylococcus aureus [1] = assay: Antibacterial activity against Staphylococcus aureus UC76 by NCCLS method; format: functional, organism-based; conditions: read-out: MIC
# Streptococcus pyogenes [2] = assay: Antibacterial activity against Streptococcus pyogenes SP1-1 by NCCLS method; format: functional
# Streptococcus pneumoniae [3] = assay: Antibacterial activity against Streptococcus pneumoniae SP-3 by NCCLS method; format: functional
# Streptococcus pneumoniae [4] = assay: Antibacterial activity against fluoroquinolone resistant Streptococcus pneumoniae SP-3765 by NCCLS method; format: functional
# DNA gyrase subunit B = DNA gyrase subunit B (Streptococcus pneumoniae serotype 4 (strain ATCC BAA-334 / TIGR4), UniProt P0A4L9); assay: Inhibition of Streptococcus pneumoniae SP-3 gyrB by enzyme coupled phosphate assay
# Sequence of DNA gyrase subunit B (P0A4L9 whole entry): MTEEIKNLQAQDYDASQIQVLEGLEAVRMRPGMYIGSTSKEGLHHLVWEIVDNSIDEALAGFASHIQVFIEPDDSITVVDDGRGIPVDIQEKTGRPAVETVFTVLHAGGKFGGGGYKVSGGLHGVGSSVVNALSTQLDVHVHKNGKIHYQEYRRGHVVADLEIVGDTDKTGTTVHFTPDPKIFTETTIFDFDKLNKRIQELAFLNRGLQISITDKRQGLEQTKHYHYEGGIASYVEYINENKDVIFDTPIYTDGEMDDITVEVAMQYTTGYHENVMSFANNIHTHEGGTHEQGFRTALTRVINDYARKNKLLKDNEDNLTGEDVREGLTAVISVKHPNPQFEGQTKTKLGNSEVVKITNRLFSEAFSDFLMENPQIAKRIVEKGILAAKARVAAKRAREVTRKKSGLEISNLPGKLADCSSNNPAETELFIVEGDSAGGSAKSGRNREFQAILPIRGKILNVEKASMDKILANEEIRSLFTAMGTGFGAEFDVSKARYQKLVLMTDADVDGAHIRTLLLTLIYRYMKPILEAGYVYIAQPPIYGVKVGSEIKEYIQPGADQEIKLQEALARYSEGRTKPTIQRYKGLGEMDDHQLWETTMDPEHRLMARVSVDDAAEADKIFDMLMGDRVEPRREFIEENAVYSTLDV
# ParE = target: T1, ParE (Streptococcus pneumoniae, UniProt Q7X1P7); assay: Inhibition of Streptococcus pneumoniae SP-3 parE after 30 mins
# T1 sequence (Q7X1P7 whole entry): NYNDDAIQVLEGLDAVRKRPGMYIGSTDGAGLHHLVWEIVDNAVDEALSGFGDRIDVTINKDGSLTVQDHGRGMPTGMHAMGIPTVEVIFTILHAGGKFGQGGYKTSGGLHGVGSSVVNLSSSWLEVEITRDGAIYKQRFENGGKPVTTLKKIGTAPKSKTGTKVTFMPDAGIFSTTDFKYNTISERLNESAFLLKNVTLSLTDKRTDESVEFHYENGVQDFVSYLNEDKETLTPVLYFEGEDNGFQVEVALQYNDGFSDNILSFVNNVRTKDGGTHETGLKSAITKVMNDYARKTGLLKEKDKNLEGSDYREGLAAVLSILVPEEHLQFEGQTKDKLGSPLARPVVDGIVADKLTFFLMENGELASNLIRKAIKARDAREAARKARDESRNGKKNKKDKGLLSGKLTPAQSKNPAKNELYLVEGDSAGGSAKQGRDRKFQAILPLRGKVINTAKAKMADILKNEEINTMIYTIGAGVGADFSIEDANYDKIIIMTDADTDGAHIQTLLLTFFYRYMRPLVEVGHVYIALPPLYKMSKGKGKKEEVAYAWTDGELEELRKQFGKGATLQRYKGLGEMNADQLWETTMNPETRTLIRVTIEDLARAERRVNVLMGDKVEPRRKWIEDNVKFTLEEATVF
# Staphylococcus aureus [5] = assay: Antibacterial activity against methicillin resistant Staphylococcus aureus SA-1417 by NCCLS method; format: functional
# Streptococcus pyogenes [6] = assay: Antibacterial activity against Streptococcus pyogenes SP1-1 infected in po dosed mouse sepsis model; format: functional; conditions: SP1-1, po, read-out: PD50
# Streptococcus pneumoniae [7] = assay: Antibacterial activity against Streptococcus pneumoniae SV-1 infected in po dosed mouse lung; format: functional; conditions: SV-1, po, read-out: PD50
# [8] = Bioavailability in rat; format: ADME, organism-based; conditions: in vivo
# [9] = Clearance in rat; format: ADME, organism-based; conditions: in vivo
# [10] = Volume of distribution in rat; format: ADME, organism-based; conditions: in vivo
SMILES,MIC (Staphylococcus aureus [1]),MIC (Streptococcus pyogenes [2]),MIC (Streptococcus pneumoniae [3]),MIC (Streptococcus pneumoniae [4]),IC50 (DNA gyrase subunit B),IC50 (ParE),MIC (Staphylococcus aureus [5]),ED50 (Streptococcus pyogenes [6]),ED50 (Streptococcus pneumoniae [7]),bioavailability [8],clearance [9],Vd [10]
CCNC(=O)Nc1cn2c(-c3ncc(C)cn3)cc(-c3ccn(C)c(=O)c3)cc2n1,0.5 µg/mL,0.125 µg/mL,0.06 µg/mL,0.06 µg/mL,,,,,,,,
CCNC(=O)Nc1cn2c(-c3ncc(C(F)(F)F)cn3)cc(-c3cccnc3)cc2n1,1 µg/mL,1 µg/mL,0.5 µg/mL,0.25 µg/mL,163 nM,367 nM,1 µg/mL,,,,,
CCC(=O)Nc1cn2c(-c3ncc(C)cn3)cc(-c3cccnc3)cc2n1,64 µg/mL,16 µg/mL,16 µg/mL,16 µg/mL,255 nM,5000 nM,> 64 µg/mL,,,,,
CCNC(=O)Nc1cn2c(-c3ncc(C)cn3)cc(-c3ccn(CCF)c(=O)c3)cc2n1,0.5 µg/mL,0.5 µg/mL,0.125 µg/mL,0.5 µg/mL,376 nM,10000 nM,1 µg/mL,,,,,
CCNC(=O)Nc1cn2c(-c3ncc(C)cn3)cc(-c3ccn(CC)c(=O)c3)cc2n1,0.25 µg/mL,1 µg/mL,0.06 µg/mL,0.125 µg/mL,51 nM,624 nM,0.5 µg/mL,,,,,
CCNC(=O)Nc1cn2c(-c3ncccn3)cc(-c3cccnc3)cc2n1,0.5 µg/mL,0.25 µg/mL,0.125 µg/mL,0.25 µg/mL,48 nM,447 nM,0.5 µg/mL,24 mg/kg,35 mg/kg,56%,33 mL/min/kg,1.6 L/kg
CCNC(=O)Nc1cn2c(-c3ncc(C)cn3)cc(-c3ccc(OC)nc3)cc2n1,0.5 µg/mL,0.5 µg/mL,0.25 µg/mL,0.125 µg/mL,117 nM,147 nM,2 µg/mL,,,,,
CCNC(=O)Nc1cn2c(-c3nccc(C4CC4)n3)cc(-c3cccnc3)cc2n1,0.5 µg/mL,1 µg/mL,0.125 µg/mL,0.25 µg/mL,330 nM,3750 nM,0.5 µg/mL,,,,,
CCNC(=O)Nc1cn2c(-c3ncc(C)cn3)cc(-c3cnc(N4CCCC4)nc3)cc2n1,0.5 µg/mL,0.25 µg/mL,0.125 µg/mL,0.06 µg/mL,244 nM,366 nM,,,,,,
CCNC(=O)Nc1cn2c(-c3ncc(Cl)cn3)cc(-c3cccnc3)cc2n1,0.25 µg/mL,0.125 µg/mL,0.06 µg/mL,0.03 µg/mL,149 nM,419 nM,0.25 µg/mL,,,,,
CCNC(=O)Nc1cn2c(-c3ncccn3)cc(-c3ccc(C)nc3)cc2n1,0.25 µg/mL,0.25 µg/mL,0.06 µg/mL,0.06 µg/mL,44 nM,119 nM,,,,,,
CCNC(=O)Nc1cn2c(-c3ncc(C)cn3)cc(-c3ccc(C)nc3)cc2n1,0.5 µg/mL,0.25 µg/mL,0.5 µg/mL,0.25 µg/mL,96 nM,373 nM,1 µg/mL,,,,,
CCNC(=O)Nc1cn2c(-c3ncc(S(C)(=O)=O)cn3)cc(-c3cccnc3)cc2n1,64 µg/mL,64 µg/mL,8 µg/mL,16 µg/mL,433 nM,1830 nM,,,,,,
Cc1cnc(-c2cc(-c3cccnc3)cc3nc(NC(=O)NC4CC4)cn23)nc1,64 µg/mL,16 µg/mL,1 µg/mL,0.25 µg/mL,295 nM,571 nM,> 64 µg/mL,,,,,
CCNC(=O)Nc1cn2c(-c3ncc(C(C)C)cn3)cc(-c3cccnc3)cc2n1,1 µg/mL,0.5 µg/mL,0.25 µg/mL,0.25 µg/mL,1910 nM,1380 nM,,,,,,
CCNC(=O)Nc1cn2c(-c3ncc(C)cn3)cc(-c3cnc(N(C)C)nc3)cc2n1,1 µg/mL,0.5 µg/mL,0.25 µg/mL,0.125 µg/mL,524 nM,1380 nM,4 µg/mL,,,,,
CCNC(=O)Nc1cn2c(-c3ncccn3)cc(-c3cnc(N(C)C)nc3)cc2n1,1 µg/mL,0.25 µg/mL,0.125 µg/mL,0.125 µg/mL,137 nM,611 nM,,,,,,
